Consider ten molecules from PMC8158703, “The Glitazone Class of Drugs as Carbonic Anhydrase Inhibitors—A Spin-Off Discovery from Fragment Screening” (Molecules, 2021).

Counter-ions that a name gives are not always drawn.

For one assay, the target named is T1, hCA XII (Homo sapiens, UniProt O43570).
T1 construct: made in house
Kind of assay: Stopped flow CO2 hydrase assay. In kind it is biochemical. To be noted: mean from three assays, errors ±10%. Here is the method: (§1) In addition to the ubiquitous hCA II, all other catalytically active hCA enzymes (I, IV, VA, VB, VI, VII, IX, XII, XIII and XIV) were assessed, providing a comprehensive profile of CA enzyme inhibition, Table 2. […] Different CAs have different expression profiles and cell locations. […] A comparison between hCA VII and hCA II has identified 7 residue differences (S65A, Q67N, D69E, K91I, A135V, S136Q, S204L) among the 23 residues within the active site cavity.
(§2) An Applied Photophysics stopped-flow instrument was used for assaying the inhibition of the CA catalysed CO2 hydration reaction. […] The uncatalyzed rates were determined in the same manner and subtracted from the total observed rates. […] Inhibitor and enzyme solutions were preincubated together for 15 min at room temperature prior to assay to allow for the formation of the enzyme inhibitor complex. The inhibition constants were obtained by nonlinear least squares methods using PRISM 3 (GraphPad Software Inc, San Diego, CA, USA). […] The catalytic activity (in the absence of inhibitors) of the different enzymes was calculated from Lineweaver–Burk plots and represent the mean from at least three different determinations. […] Enzymes used here were recombinant ones, prepared and purified as described earlier.

A further assay addresses T2, hCA IV (Homo sapiens, UniProt P22748).
T2 construct: made in house
Kind of assay: Stopped flow CO2 hydrase assay. The class given is biochemical. To be noted: mean from three assays, errors ±10%. As for the experimental part:
as §1, §2

A further assay has as its target T3, hCA I (Homo sapiens, UniProt P00915).
T3 construct: made in house
Kind of assay: Stopped flow CO2 hydrase assay. The class given is biochemical. The note with it: mean from three assays, errors ±10%. As for the experimental part:
as §1, §2

Another assay has as its target T4, hCA II (Homo sapiens, UniProt P00918).
T4 construct: made in house
Kind of assay: Stopped flow CO2 hydrase assay. The note with it: mean from three assays, errors ±10%. The class given is biochemical. Here is the method: as §1, §2

For another assay, the target named is T5, hCA IX (Homo sapiens, UniProt Q16790).
T5 construct: made in house
Kind of assay: Stopped flow CO2 hydrase assay. In kind it is biochemical. The note with it: mean from three assays, errors ±10%. Here is the method: as §1, §2

For a further assay, the target named is T6, hCA VB (Homo sapiens, UniProt Q9Y2D0).
T6 construct: made in house
T6 sequence (Q9Y2D0 34-317): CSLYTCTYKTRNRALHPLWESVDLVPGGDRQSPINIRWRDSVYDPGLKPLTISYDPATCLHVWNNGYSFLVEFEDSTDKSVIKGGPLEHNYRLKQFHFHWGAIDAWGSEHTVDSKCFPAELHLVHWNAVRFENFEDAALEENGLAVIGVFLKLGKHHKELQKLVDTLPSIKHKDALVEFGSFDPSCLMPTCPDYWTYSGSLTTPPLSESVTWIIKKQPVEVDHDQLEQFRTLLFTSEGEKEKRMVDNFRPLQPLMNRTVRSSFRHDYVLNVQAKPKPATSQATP
Kind of assay: Stopped flow CO2 hydrase assay. The class given is biochemical. The note with it: mean from three assays, errors ±10%. As for the experimental part: (§3) CA enzyme inhibition data was determined by measuring the CA-catalysed hydration of CO2 in the presence of 11–13. In addition to the ubiquitous hCA II, all other catalytically active hCA enzymes (I, IV, VA, VB, VI, VII, IX, XII, XIII and XIV) were assessed, providing a comprehensive profile of CA enzyme inhibition, Table 2. […]. Different CAs have different expression profiles and cell locations. […] A comparison between hCA VII and hCA II has identified 7 residue differences (S65A, Q67N, D69E, K91I, A135V, S136Q, S204L) among the 23 residues within the active site cavity. […] Here, we propose that this further extends to the minimal differences in observed active site compound binding strength between these isozymes. […]. Furthermore, they are considered a validated target for antiobesity drug development, in which they have been proposed to have an involvement in insulin secretion, however this mechanism is not yet fully understood. […]. The appreciable inhibition of the glitazones for the different CA isozymes highlights the potential for CA-mediated off-target effects of these drugs when used clinically, and given the reported polypharmacology observed for these compounds, this may provide an avenue for further understanding of their mechanism of action.
(§4) An Applied Photophysics stopped-flow instrument was used for assaying the inhibition of the CA catalysed CO2 hydration reaction. Phenol red (0.2 mM) was used as indicator, monitored at the absorbance maximum of 557 nm. Reactions were carried out in a HEPES (10 mM, pH 7.4) buffer and NaClO4 (10 mM), for maintaining the ionic strength constant, the ClO4^- anion is not inhibitory against most CA isoforms at 25 °C [62]. […]. Inhibitors were tested in the concentration range of 0.01 nM–100 μM, and at least six traces of the initial 5–10% of the reaction have been used for determining the initial velocity. The uncatalyzed rates were determined in the same manner and subtracted from the total observed rates. Stock solutions of inhibitor (1 mM) were prepared in distilled, deionized water with 10–20% (v/v) DMSO (which is not inhibitory at these concentrations), and dilutions were performed thereafter with the assay buffer. Inhibitor and enzyme solutions were preincubated together for 15 min at room temperature prior to assay to allow for the formation of the enzyme inhibitor complex. The inhibition constants were obtained by nonlinear least squares methods using PRISM 3 (GraphPad Software Inc, San Diego, CA, USA). […]. The catalytic activity (in the absence of inhibitors) of the different enzymes was calculated from Lineweaver–Burk plots and represent the mean from at least three different determinations. Enzyme concentrations in the assay system were in the range of 3.8–9.5 nM. Enzymes used here were recombinant ones, prepared and purified as described earlier.

The next assay has as its target T7, hCA XIII (Homo sapiens, UniProt Q8N1Q1).
T7 construct: made in house
Kind of assay: Stopped flow CO2 hydrase assay. The class given is biochemical. To be noted: mean from three assays, errors ±10%. As for the experimental part: as §3, §4

The target of a further assay is T8, hCA XIV (Homo sapiens, UniProt Q9ULX7).
T8 construct: made in house
T8 sequence (Q9ULX7 16-337): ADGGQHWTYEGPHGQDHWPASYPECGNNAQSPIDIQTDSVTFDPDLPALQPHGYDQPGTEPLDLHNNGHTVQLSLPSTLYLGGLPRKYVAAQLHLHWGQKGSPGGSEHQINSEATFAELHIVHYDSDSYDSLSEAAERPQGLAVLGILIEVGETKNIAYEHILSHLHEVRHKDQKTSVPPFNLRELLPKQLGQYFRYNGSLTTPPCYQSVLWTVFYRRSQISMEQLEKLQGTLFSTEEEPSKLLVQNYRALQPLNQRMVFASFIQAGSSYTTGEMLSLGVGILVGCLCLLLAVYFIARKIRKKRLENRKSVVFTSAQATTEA
Kind of assay: Stopped flow CO2 hydrase assay. The class given is biochemical. To be noted: mean from three assays, errors ±10%. Here is the method:
as §3, §4

Another assay addresses T9, hCA VA (Homo sapiens, UniProt P35218).
T9 construct: made in house
Kind of assay: Stopped flow CO2 hydrase assay. In kind it is biochemical. To be noted: mean from three assays, errors ±10%. Here is the method: as §3, §4

In another assay the target is T10, hCA VI (Homo sapiens, UniProt P23280).
T10 construct: made in house
T10 sequence (P23280 18-308): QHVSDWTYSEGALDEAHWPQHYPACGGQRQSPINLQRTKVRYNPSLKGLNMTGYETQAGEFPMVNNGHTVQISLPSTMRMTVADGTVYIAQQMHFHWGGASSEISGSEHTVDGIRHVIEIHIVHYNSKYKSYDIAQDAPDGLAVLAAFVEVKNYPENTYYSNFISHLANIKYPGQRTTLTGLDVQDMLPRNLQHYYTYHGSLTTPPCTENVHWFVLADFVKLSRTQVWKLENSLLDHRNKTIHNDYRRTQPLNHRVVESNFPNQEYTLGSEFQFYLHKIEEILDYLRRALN
Kind of assay: Stopped flow CO2 hydrase assay. The class given is biochemical. The note with it: mean from three assays, errors ±10%. Here is the method: as §3, §4

For a further assay, the target named is CA II. To be noted: CA II hit fragments, SPR; cited from earlier work.
The target of another assay is T11, hCA VII (Homo sapiens, UniProt P43166).
T11 construct: made in house
T11 sequence (P43166 whole entry): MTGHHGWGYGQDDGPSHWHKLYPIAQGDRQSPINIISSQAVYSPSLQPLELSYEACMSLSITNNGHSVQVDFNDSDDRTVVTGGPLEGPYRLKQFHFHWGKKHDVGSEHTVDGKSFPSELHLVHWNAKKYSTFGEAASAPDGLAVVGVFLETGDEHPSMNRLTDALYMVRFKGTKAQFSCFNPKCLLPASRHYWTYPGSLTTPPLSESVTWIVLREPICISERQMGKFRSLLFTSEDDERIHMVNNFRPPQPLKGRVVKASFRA
Kind of assay: Stopped flow CO2 hydrase assay. To be noted: mean from three assays, errors ±10%. The class given is biochemical. Here is the method:
as §1, §2

T3 sequence (P00915 whole entry): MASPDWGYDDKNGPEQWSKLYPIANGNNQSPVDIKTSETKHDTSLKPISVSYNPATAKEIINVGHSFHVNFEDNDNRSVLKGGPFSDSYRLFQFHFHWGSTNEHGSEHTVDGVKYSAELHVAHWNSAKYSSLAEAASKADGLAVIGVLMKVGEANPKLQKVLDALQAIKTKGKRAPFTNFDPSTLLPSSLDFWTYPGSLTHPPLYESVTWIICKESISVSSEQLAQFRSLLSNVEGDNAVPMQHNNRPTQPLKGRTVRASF
T9 sequence (P35218 39-305): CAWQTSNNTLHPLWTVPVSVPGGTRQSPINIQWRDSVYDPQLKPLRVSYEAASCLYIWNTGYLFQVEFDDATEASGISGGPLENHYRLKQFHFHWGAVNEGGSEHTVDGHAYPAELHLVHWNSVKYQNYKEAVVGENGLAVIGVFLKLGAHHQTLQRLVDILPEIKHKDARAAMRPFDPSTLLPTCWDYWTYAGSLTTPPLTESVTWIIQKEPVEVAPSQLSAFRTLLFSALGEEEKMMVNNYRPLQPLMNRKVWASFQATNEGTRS
T2 sequence (P22748 19-312): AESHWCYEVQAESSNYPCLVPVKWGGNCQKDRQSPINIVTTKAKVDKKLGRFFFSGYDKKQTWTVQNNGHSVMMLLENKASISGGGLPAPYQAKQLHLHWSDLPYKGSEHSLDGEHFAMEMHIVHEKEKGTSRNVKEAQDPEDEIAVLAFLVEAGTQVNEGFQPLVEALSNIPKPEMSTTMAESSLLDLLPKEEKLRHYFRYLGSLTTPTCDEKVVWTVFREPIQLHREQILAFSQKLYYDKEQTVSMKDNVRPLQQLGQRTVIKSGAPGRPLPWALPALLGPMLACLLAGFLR
T7 sequence (Q8N1Q1 whole entry): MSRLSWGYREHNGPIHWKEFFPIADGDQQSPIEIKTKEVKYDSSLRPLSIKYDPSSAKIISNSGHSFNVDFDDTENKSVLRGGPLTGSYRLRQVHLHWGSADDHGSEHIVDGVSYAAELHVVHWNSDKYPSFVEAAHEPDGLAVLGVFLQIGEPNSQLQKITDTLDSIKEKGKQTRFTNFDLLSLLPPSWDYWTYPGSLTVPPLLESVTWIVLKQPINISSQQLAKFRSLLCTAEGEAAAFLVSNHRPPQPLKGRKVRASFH
T1 sequence (O43570 25-354): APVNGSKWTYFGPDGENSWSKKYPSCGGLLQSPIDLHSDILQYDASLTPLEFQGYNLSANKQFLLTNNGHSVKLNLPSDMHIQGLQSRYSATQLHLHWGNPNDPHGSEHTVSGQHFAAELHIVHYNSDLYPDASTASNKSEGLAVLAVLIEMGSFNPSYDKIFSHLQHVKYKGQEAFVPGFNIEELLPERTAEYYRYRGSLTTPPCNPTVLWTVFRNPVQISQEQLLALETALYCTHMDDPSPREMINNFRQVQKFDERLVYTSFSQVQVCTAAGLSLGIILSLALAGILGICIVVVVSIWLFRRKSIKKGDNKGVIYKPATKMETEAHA

On to `Cc1c(C)c2c(c(C)c1O)CCC(C)(COc1ccc(CC3SC(=O)NC3=O)cc1)O2` (racemic) [Compound 11, (±)-5-[4-[(6-Hydroxy-2,5,7,8-tetramethylchroman-2-yl)methoxy]benzyl]-2,4-thiazolidinedione], for which the Ki – broadly, the dissociation constant of the complex between target and ligand, obtained from inhibition or displacement – on hCA XII was 920 nM; on hCA IV, > 100 µM; at hCA I, 57.2 µM; on hCA II, 1300 nM; on hCA IX, 1300 nM; on hCA VB, 28.9 µM. Besides, the Ki was 32.3 µM at hCA XIII, 16.8 µM at hCA XIV, 12.4 µM on hCA VA and 46.7 µM at hCA VI.
`C/C(=C\C(=O)O)c1ccc(Cl)cc1` [Compound 1]: the Kd – broadly, the free concentration of one partner at which half of the binding sites on the other are occupied at equilibrium, for simple one-to-one binding – on CA II is 905 µM.
With `O=C(O)c1cccc(Oc2ccccc2)c1` [Compound 2], the Kd on CA II is 1280 µM.
For `O=C(O)Cc1cccc(OCc2ccccc2)c1` [Compound 3], on CA II, the Kd was 1080 µM.
For `Cc1ccnc(S(N)(=O)=O)n1` [Compound 4], the Kd on CA II is 1.4 µM.
As to `Clc1ccccc1OCc1nn[nH]n1` [Compound 5], at CA II, the Kd is 631 µM.
In the case of `Clc1ccc(OCc2nn[nH]n2)cc1` [Compound 6], the Kd at CA II was 709 µM.
Consider `O=C(CSc1nnc[nH]1)c1ccccc1` [Compound 7], for which the Kd at CA II was 194 µM.
With `CN(CCOc1ccc(CC2SC(=O)NC2=O)cc1)c1ccccn1` (centres unmarked) [Compound 12, 5-[[4-[2-(methyl-2-pyridinylamino)ethoxy]phenyl]methyl]-2,4-thiazolidinedione], the Ki on hCA XII amounted to 3700 nM; at hCA IV, 58.9 µM; on hCA I, 16.3 µM; on hCA II, 750 nM; on hCA IX, 2500 nM; on hCA VII, 6.1 µM. In addition, the Ki on hCA VB was found to be 40.9 µM; on hCA XIII, 7.4 µM; on hCA XIV it was 2.3 µM; on hCA VA, 8.2 µM; at hCA VI, 5.9 µM.
Take `CCc1ccc(CCOc2ccc(CC3SC(=O)NC3=O)cc2)nc1` (centres unmarked) [Compound 13, 5-[[4-[2-(5-ethyl-2-pyridinyl)ethoxy]phenyl]methyl]-2,4-thiazolidinedione monohydrochloride]: the Ki on hCA IV was 92.1 µM; at hCA I, 39.6 µM; on hCA II it was 7100 nM; at hCA IX, 750 nM; at hCA VII, 4.9 µM; on hCA VB, 36.2 µM. The Ki on hCA XIII was 21.5 µM; at hCA XIV, 6.6 µM; on hCA VA, 5.3 µM; on hCA VI, 19.8 µM.
